Experiments:
[1] = system: PC-9; test: MTT assay, antiproliferative activity against PC-9; type: cell-based, human; details: Homo sapiens, PC-9, 72 h
Experimental: (§1) Human gastric carcinoma cell line MGC-803, human breast adenocarcinoma cell line MCF-7, human lung carcinoma cell lines (PC-9, A549, and H1975), and human immortalized gastric mucosa epithelial cell line GES-1 were purchased from the Cell Bank of Shanghai Institute of Biochemistry and Cell Biology (Shanghai, China), and all of them were cultured in RPMI-1640 and DMEM complete medium (Solarbio, Beijing, China) at 37 °C in a 5% CO2 humidified atmosphere.
(§2) Briefly, cells were incubated with different concentrations of the test compound for different hours in each experiment for 72 h, followed by adding 20 μL MTT solution to each well, which was then incubated for another 4 h. An enzyme-linked immunosorbent assay reader (BioTek, South Plainfield, VT, USA) was used to measure absorbance values at 490 nm, and SPSS20 software was used to calculate the cell viability and IC50 values.

[2] = system: A549; test: MTT assay, antiproliferative activity against A549; type: cell-based, human; details: Homo sapiens, A549, 72 h
Experimental: as §1, §2

[3] = system: MGC-803; test: MTT assay, antiproliferative activity against MGC-803; type: cell-based, human; details: Homo sapiens, MGC-803, 72 h
Experimental: as §1, §2

[4] = system: H1975; test: MTT assay, antiproliferative activity against H1975; type: cell-based, human; details: Homo sapiens, NCI-H1975, 72 h
Experimental: as §1, §2

[5] = system: MCF-7; test: MTT assay, antiproliferative activity against MCF-7; type: cell-based, human; details: Homo sapiens, MCF7, 72 h
Experimental: as §1, §2

[6] = system: GES-1; test: MTT assay, toxicity toward normal gastric epithelial cell line GES-1; type: cell-based, human; details: for IC50: Homo sapiens, GES1, MTT, 72 h
Experimental: as §1, §2

[7] = system: healthy male and female mice; test: Acute toxicity assay; type: in vivo; details: 1000 mg/kg intragastric, single dose
Experimental: The solution of compound 18 was prepared in 80% PEG400 solution. Eight ICR mice (four male/four female, 24–28 g, aged five to six weeks) were obtained from the Beijing Vital River Laboratory Animal Technology Co., Ltd. (Beijing, China). All animal treatments were performed under the guidelines of the National Institutes of Health Guide for the Care and Use of Laboratory Animals using an approved animal protocol by the Zhengzhou University Committee on Animal Care. Male and female mice ([…]) were divided randomly into four groups: a male control group (n = 2), a female control group (n = 2), a male group (n = 2), and a female group (n = 2). All mice were deprived of feed for 12 h. 1 g/kg compound 18 was administered intragastrically in the experiment group of mice, while the mice in the control group received the same volume of vehicle solution on the first day, followed by monitoring abnormal behaviors, body weight, and the death of these mice every day during the following two weeks.

[8] = system: MGC-803 cells; test: Apoptosis, Annexin V-FITC/PI flow cytometry; type: cell-based, human; details: 1.5 μM, 48 h
Experimental: Cells were plated in 6-well plates and incubated with 0.37 µM, 0.75 µM, and 1.5 µM compound 18 for 48 h, followed by being harvested and stained by PI and Annexin V according to manufacturer’s protocol. Finally, flow cytometry (BD Bioscience, Franklin Lake, NJ, USA) was applied to detect apoptotic cells.

[9] = system: MGC-803 cells; test: Western blot of apoptosis-related proteins; type: cell-based, human; details: 0.37, 0.75, 1.5 µM; 48 h
Experimental: Cells were incubated with 0.37 µM, 0.75 µM, and 1.5 µM compound 18 for 48 h and then collected with trypsin and total proteins and extracted in a lysis buffer. A BCA protein assay kit (Solarbio, Beijing, China) was used to confirm the concentration of the total proteins. These samples were detected by the standard protocol of western blot as described before.

[10] = system: MGC-803 cells; test: Wound healing migration assay; type: cell-based, human; details: 1 µM; 12 h, 24 h, 48 h
Experimental: For the wound healing assay, MGC-803 cells were seeded into 6-well plates, reaching the density of 90%, followed by being scraped off using a sterile yellow pipette tip and photographed. Subsequently, cells were treated with compound 18 at 1 µM for 12 h, 24 h, and 48 h, respectively, and then photographed again each time.

[11] = system: MGC-803 cells; test: Transwell migration assay; type: cell-based, human; details: 0.37, 0.75, 1.5 µM; 48 h
Experimental: For the transwell assay, 600 µL of fresh medium was added to 20% FBS to the substrate of the 24-well plates. Then, 2 × 10^4 MGC-803 cells were seeded into each well, followed by incubation with 0.37 µM, 0.75 µM, and 1.5 µM compound 18 in the upper chambers for 48 h, which was then stained by DAPI solution and photographed.

[12] = system: xenograft model carrying MGC-803 cells; test: In vivo anti-tumor activity, gastric cancer xenograft model; set-up: species or system mice; details: 25 mg/kg intragastric per day for 21 days
Experimental: Male mice (23–25 g, aged 5–6 weeks) were obtained from Beijing Vital River Laboratory Animal Technology Co., Ltd. (Beijing, China). All animal treatments were performed under the guidelines of the National Institutes of Health Guide for the Care and Use of Laboratory Animals using an approved animal protocol by the Zhengzhou University Committee on Animal Care (2020CHEM-ZZU-086). 1.0 × 10^7 MGC-803 cells were implanted in the right flank of mice subcutaneously. After 16 days, the tumor volume reached 100 mm^3, followed by being randomly divided into three groups (n = 7): solvent group, 5-Fu (10 mg/kg) group, and compound 18 (25 mg/kg) group. An intravenous injection of 5-Fu (10 mg/kg) was administered into the corresponding mice group every three days, while the mice in compound 18 group received intragastric administration of 25 mg/kg compound 18 per day for 21 days. Tumor diameter and body weight were measured every two days, followed by the euthanization of the mice after 34 days, after which tumor weights were.

[13] = system: MGC-803 cells; test: Cell cycle distribution, PI flow cytometry; type: cell-based, human; details: 0.37, 0.75, 1.5 µM; 48 h
Experimental: MGC-803 cells were seeded into 6-well plates at a concentration of 4 × 10^5 cells per well, followed by being incubated with 0.37 µM, 0.75 µM, and 1.5 µM compound 18 for 48 h, which were subsequently harvested and stained in 500 µL Propidium Iodide solution (PI 1 mg/mL, RNase A 10 mg/mL, Solarbio, Beijing, China) at room temperature without light for 30 min. Finally, flow cytometry (BD Bioscience, Franklin Lake, NJ, USA) was used to detect and analyze staining cells.

| Structure (SMILES) | IC50 [1] [µM] | IC50 [2] [µM] | IC50 [3] [µM] | IC50 [4] [µM] | IC50 [5] [µM] | IC50 [6] [µM] | melting point [°C] | pathological damage of brain, heart, liver, spleen, lung, kidney (HE staining) [7] | apoptotic percentage (late and early apoptosis) [8] [%] | selectivity MGC-803 against GES-1 ([6]; IC50 GES-1 / IC50 MGC-803) [fold] | expression of Bax [9] | expression of Bcl-2 [9] | expression of Mcl-1 [9] | expression of cleaved PARP [9] | effect on migration of MGC-803 cells, wound healing assay [10] | effect on migration of MGC-803 cells, transwell assay [11] | average tumor volume [12] | body weight [12] | tumor weight [12] | effect on cell cycle [13] |
| --- | --- | --- | --- | --- | --- | --- | --- | --- | --- | --- | --- | --- | --- | --- | --- | --- | --- | --- | --- | --- |
| Cc1ccc(Nc2nc(-c3ccccc3)nc3ccccc23)cc1 [compound 12, 2-Phenyl-N-(p-tolyl)quinazolin-4-amine] | 15.3 ± 1.53 | 8.56 ± 1.72 | 5.81 ± 2.41 | 19.4 ± 2.38 | 10.6 ± 1.67 | 24.3 ± 1.96 |  |  |  |  |  |  |  |  |  |  |  |  |  |  |
| COc1ccc(Nc2nc(-c3ccccc3)nc3ccccc23)cc1 [compound 13, N-(4-Methoxyphenyl)-2-phenylquinazolin-4-amine] | 6.83 ± 1.29 | 5.69 ± 1.68 | 4.98 ± 1.26 | > 30 | 8.36 ± 1.92 | 21.3 ± 2.79 |  |  |  |  |  |  |  |  |  |  |  |  |  |  |
| COc1cc(Nc2nc(-c3ccccc3)nc3ccccc23)cc(OC)c1OC [compound 14, 2-Phenyl-N-(3,4,5-trimethoxyphenyl)quinazolin-4-amine] | 5.35 ± 1.82 | 8.72 ± 1.53 | 2.12 ± 0.97 | 13.2 ± 1.86 | 3.21 ± 2.28 | 19.6 ± 2.58 |  |  |  |  |  |  |  |  |  |  |  |  |  |  |
| c1ccc(-c2nc(Nc3cccc4ccccc34)c3ccccc3n2)cc1 [compound 15, N-(Naphthalen-1-yl)-2-phenylquinazolin-4-amine] | 15.4 ± 1.92 | 12.2 ± 1.59 | 18.9 ± 2.82 | 10.4 ± 1.88 | > 30 | > 30 | 204 to 208 |  |  |  |  |  |  |  |  |  |  |  |  |  |
| O=C(/C=C/c1ccc(F)cc1)c1ccc(Nc2nc(-c3ccccc3)nc3ccccc23)cc1 [compound 16, (E)-3-(4-Fluorophenyl)-1-(4-((2-phenylquinazolin-4-yl)amino)phenyl)prop-2-en-1-one] | 2.75 ± 0.66 | 1.98 ± 0.26 | 2.02 ± 0.38 | 3.67 ± 0.93 | 3.96 ± 0.92 | 18.8 ± 1.56 | 252 to 256 |  |  |  |  |  |  |  |  |  |  |  |  |  |
| O=C(/C=C/c1ccc(Cl)cc1)c1ccc(Nc2nc(-c3ccccc3)nc3ccccc23)cc1 [compound 17, (E)-3-(4-Chlorophenyl)-1-(4-((2-phenylquinazolin-4-yl)amino)phenyl)prop-2-en-1-one] | 1.89 ± 0.67 | 1.46 ± 0.16 | 1.39 ± 0.26 | 4.75 ± 0.81 | 2.37 ± 0.35 | 23.4 ± 2.83 | 263 to 267 |  |  |  |  |  |  |  |  |  |  |  |  |  |
| O=C(/C=C/c1ccc(Br)cc1)c1ccc(Nc2nc(-c3ccccc3)nc3ccccc23)cc1 [compound 18, (E)-3-(4-Bromophenyl)-1-(4-((2-phenylquinazolin-4-yl)amino)phenyl)prop-2-en-1-one] | 1.26 ± 0.18 | 1.54 ± 0.38 | 0.85 ± 0.14 | 2.12 ± 0.52 | 1.61 ± 0.2 | 26.8 ± 1.85 |  | no marked pathological damage | 70.9 | ~32 | up-regulating | remarkably decreased | remarkably decreased | dose-dependently induced the up-regulation | effectively inhibit the migration of MGC-803 cells dose-dependently | effectively inhibit the migration of MGC-803 cells dose-dependently | decreased the average tumor volume | did not cause significant changes in body weight | decreased the average tumor volume and tumor weight | significantly induced cell cycle arrest at G2/M |
| O=C(/C=C/c1ccc2ccccc2c1)c1ccc(Nc2nc(-c3ccccc3)nc3ccccc23)cc1 [compound 19, (E)-3-(Naphthalen-2-yl)-1-(4-((2-phenylquinazolin-4-yl)amino)phenyl)prop-2-en-1-one] | 1.39 ± 0.25 | 2.55 ± 0.49 | 1.56 ± 0.92 | 2.61 ± 0.59 | 1.96 ± 0.56 | 19.8 ± 2.21 | 281 to 286 |  |  |  |  |  |  |  |  |  |  |  |  |  |

Source: paper PMC9230651, “Discovery of Novel Quinazoline Derivatives as Potent Antitumor Agents” (Molecules, 2022)
